Test results taken from US20070049564A1 (Wyeth, priority 2005, published 2007).
In brackets after ≈: the same amount, converted by molar mass. Like-named read-outs stand apart in the source and are kept apart here.

Key:
Staph. = experiment: Range of MIC for Staph. strains, including MRSA; conditions: Staphylococcus aureus, MRSA
Staph. aureus Smith = experiment: In vivo activity (oral, iv; ED50) against Staph. aureus Smith in mice
Experimental: Representative examples of compounds of Formula I were tested for the oral efficacy using S. aureus Smith in mice.

E. coli = experiment: Range of MIC for E. coli strains; conditions: Escherichia coli
[1] = read-out: Minimum inhibitory concentration (MIC), Staph. (mouse serum)
[2] = read-out: Minimum inhibitory concentration (MIC), Staph. (water)
[3] = read-out: Range of MIC, Staph (Mouse Serum)
[4] = read-out: Range of MIC, Staph (Water)
[5] = Staphylococcus aureus, in Mus musculus, po, read-out: ED50 Staph Smith SOD
[6] = iv, read-out: ED50 Staph Smith SIV
[7] = 20 h, read-out: Range of MIC, E. coli (Mouse Serum)
[8] = read-out: Minimum inhibitory concentration (MIC), E. coli (mouse serum)
[9] = read-out: Minimum inhibitory concentration (MIC), E. coli (water)
[10] = read-out: Range of MIC, E. coli (Water)

Row | SMILES | MIC (Staph.; [1]) | MIC (Staph.; [2]) | MIC (Staph.; [3]) | MIC (Staph.; [4]) | ED50 (Staph. aureus Smith; [5]) | ED50 (Staph. aureus Smith; [6]) | MIC (E. coli; [7]) | MIC (E. coli; [8]) | MIC (E. coli; [9]) | MIC (E. coli; [10]) | MIC (Staph.; read-out: Range of MIC, Staph. (mouse serum)) | MIC (Staph.; read-out: Range of MIC, Staph. (water)) | MIC (E. coli; read-out: Range of MIC, E. coli (mouse serum))
1 | CCCCCCC(=O)OCOC(=O)N(CCCC)CC(=O)Nc1cc(N(C)C)c2c(c1O)C(=O)C1=C(O)[C@]3(O)C(=O)C(C(N)=O)=C(O)[C@@H](N(C)C)[C@@H]3C[C@@H]1C2 [Example 17, ({[(2-{[(5aR,6aS,7S,10aS)-9-(aminocarbonyl)-4,7-bis(dimethylamino)-1,8,10a,11-tetrahydroxy-10,12-dioxo-5,5a,6,6a,7,10,10a,12-octahydrotetracen-2-yl]amino}-2-oxoethyl)(butyl)amino]carbonyl}oxy)methyl heptanoate] | 1 to 4 µg/mL (≈ 1.3 to 5.18 µM) | 2 to 32 µg/mL (≈ 2.59 to 41.5 µM) | 1 to 4 µg/mL (≈ 1.3 to 5.18 µM) | 2 to 32 µg/mL (≈ 2.59 to 41.5 µM) | 59.9 mg/kg | 1.07 mg/kg | 0.5 to 2 µg/mL (≈ 0.648 to 2.59 µM) | 0.5 to 2 µg/mL (≈ 0.648 to 2.59 µM) | 32 to 64 µg/mL (≈ 41.5 to 82.9 µM) | 32 to 64 µg/mL (≈ 41.5 to 82.9 µM) | – | – | –
2 | CCCCN(CC(=O)Nc1cc(N(C)C)c2c(c1O)C(=O)C1=C(O)[C@]3(O)C(=O)C(C(N)=O)=C(O)[C@@H](N(C)C)[C@@H]3C[C@@H]1C2)C(=O)OCOC(=O)C1CCC1 [Example 18, ({[(2-{[(5aR,6aS,7S,10aS)-9-(aminocarbonyl)-4,7-bis(dimethylamino)-1,8,10a,11-tetrahydroxy-10,12-dioxo-5,5a,6,6a,7,10,10a,12-octahydrotetracen-2-yl]amino}-2-oxoethyl)(butyl)amino]carbonyl}oxy)methyl cyclobutanecarboxylate] | 1 to 4 µg/mL (≈ 1.35 to 5.39 µM) | 1 to 4 µg/mL (≈ 1.35 to 5.39 µM) | 1 to 4 µg/mL (≈ 1.35 to 5.39 µM) | 1 to 4 µg/mL (≈ 1.35 to 5.39 µM) | 29 mg/kg | 0.6 mg/kg | 0.5 to 2 µg/mL (≈ 0.674 to 2.7 µM) | 0.5 to 2 µg/mL (≈ 0.674 to 2.7 µM) | 4 to 8 µg/mL (≈ 5.39 to 10.8 µM) | 4 to 8 µg/mL (≈ 5.39 to 10.8 µM) | – | – | –
3 | CCCCN(CC(=O)Nc1cc(N(C)C)c2c(c1O)C(=O)C1=C(O)[C@]3(O)C(=O)C(C(N)=O)=C(O)[C@@H](N(C)C)[C@@H]3C[C@@H]1C2)C(=O)OCOC(=O)c1ccc(C(C)(C)C)cc1 [Example 20, ({[(2-{[(5aR,6aS,7S,10aS)-9-(aminocarbonyl)-4,7-bis(dimethylamino)-1,8,10a,11-tetrahydroxy-10,12-dioxo-5,5a,6,6a,7,10,10a,12-octahydrotetracen-2-yl]amino}-2-oxoethyl)(butyl)amino]carbonyl}oxy)methyl 4-tert-butylbenzoate] | 1 to 4 µg/mL (≈ 1.22 to 4.88 µM) | – | 1 to 4 µg/mL (≈ 1.22 to 4.88 µM) | – | 19.4 mg/kg | 0.6 mg/kg | 0.5 to 2 µg/mL (≈ 0.61 to 2.44 µM) | 0.5 to 2 µg/mL (≈ 0.61 to 2.44 µM) | > 64 µg/mL | > 64 µg/mL | – | – | –
4 | CCCCN(CC(=O)Nc1cc(N(C)C)c2c(c1O)C(=O)C1=C(O)[C@]3(O)C(=O)C(C(N)=O)=C(O)[C@@H](N(C)C)[C@@H]3C[C@@H]1C2)C(=O)OCOC(=O)c1ccsc1 [Example 29, ({[(2-{[(5aR,6aS,7S,10aS)-9-(aminocarbonyl)-4,7-bis(dimethylamino)-1,8,10a,11-tetrahydroxy-10,12-dioxo-5,5a,6,6a,7,10,10a,12-octahydrotetracen-2-yl]amino}-2-oxoethyl)(butyl)amino]carbonyl}oxy)methyl thiophene-3-carboxylate] | 0.25 to 2 µg/mL (≈ 0.325 to 2.6 µM) | 1 to 4 µg/mL (≈ 1.3 to 5.2 µM) | 0.25 to 2 µg/mL (≈ 0.325 to 2.6 µM) | 1 to 4 µg/mL (≈ 1.3 to 5.2 µM) | 13.7 mg/kg | 0.43 mg/kg | 0.5 to 1 µg/mL (≈ 0.649 to 1.3 µM) | 0.5 to 1 µg/mL (≈ 0.649 to 1.3 µM) | > 64 µg/mL | > 64 µg/mL | – | – | –
5 | CCCCN(CC(=O)Nc1cc(N(C)C)c2c(c1O)C(=O)C1=C(O)[C@]3(O)C(=O)C(C(N)=O)=C(O)[C@@H](N(C)C)[C@@H]3C[C@@H]1C2)C(=O)OCOC(=O)c1ccco1 [Example 30, ({[(2-{[(5aR,6aS,7S,10aS)-9-(aminocarbonyl)-4,7-bis(dimethylamino)-1,8,10a,11-tetrahydroxy-10,12-dioxo-5,5a,6,6a,7,10,10a,12-octahydrotetracen-2-yl]amino}-2-oxoethyl)(butyl)amino]carbonyl}oxy)methyl 2-furate] | 0.25 to 2 µg/mL (≈ 0.332 to 2.65 µM) | 1 to 8 µg/mL (≈ 1.33 to 10.6 µM) | 0.25 to 2 µg/mL (≈ 0.332 to 2.65 µM) | 1 to 8 µg/mL (≈ 1.33 to 10.6 µM) | 15.1 mg/kg | 0.41 mg/kg | 0.5 to 1 µg/mL (≈ 0.663 to 1.33 µM) | 0.5 to 1 µg/mL (≈ 0.663 to 1.33 µM) | – | – | – | – | –
6 | CCCN(CC(=O)Nc1cc(N(C)C)c2c(c1O)C(=O)C1=C(O)[C@]3(O)C(=O)C(C(N)=O)=C(O)[C@@H](N(C)C)[C@@H]3C[C@@H]1C2)C(=O)OCOC(=O)c1ccco1 [Example 31, ({[(2-{[(5aR,6aS,7S,10aS)-9-(aminocarbonyl)-4,7-bis(dimethylamino)-1,8,10a,11-tetrahydroxy-10,12-dioxo-5,5a,6,6a,7,10,10a,12-octahydrotetracen-2-yl]amino}-2-oxoethyl)(propyl)amino]carbonyl}oxy)methyl 2-furate] | – | – | 0.25 to 2 µg/mL (≈ 0.338 to 2.7 µM) | 0.5 to 4 µg/mL (≈ 0.676 to 5.41 µM) | 11.1 mg/kg | 0.31 mg/kg | 0.5 to 1 µg/mL (≈ 0.676 to 1.35 µM) | – | – | – | 0.25 to 2 µg/mL (≈ 0.338 to 2.7 µM) | 0.5 to 4 µg/mL (≈ 0.676 to 5.41 µM) | 0.5 to 1 µg/mL (≈ 0.676 to 1.35 µM)
7 | CCCCN(CC(=O)Nc1cc(N(C)C)c2c(c1O)C(=O)C1=C(O)[C@]3(O)C(=O)C(C(N)=O)=C(O)[C@@H](N(C)C)C3CC1C2)C(=O)OC(C)OC(C)=O (stereo partly drawn) [Example 32, 1-({[(2-{[(7S,10aS)-9-(aminocarbonyl)-4,7-bis(dimethylamino)-1,8,10a,11-tetrahydroxy-10,12-dioxo-5,5a,6,6a,7,10,10a,12-octahydrotetracen-2-yl]amino}-2-oxoethyl)(butyl)amino]carbonyl}oxy)ethyl acetate] | – | – | 0.25 to 2 µg/mL | 0.5 to 4 µg/mL | 7.7 mg/kg | 0.56 mg/kg | 0.5 to 1 µg/mL | – | – | 1 to 4 µg/mL | – | – | –
8 | CCCCN(CC(=O)Nc1cc(N(C)C)c2c(c1O)C(=O)C1=C(O)[C@]3(O)C(=O)C(C(N)=O)=C(O)[C@@H](N(C)C)C3CC1C2)C(=O)OCOC(=O)C1CCCCC1 (stereo partly drawn) [Example 34, ({[(2-{[(7S,10aS)-9-(aminocarbonyl)-4,7-bis(dimethylamino)-1,8,10a,11-tetrahydroxy-10,12-dioxo-5,5a,6,6a,7,10,10a,12-octahydrotetracen-2-yl]amino}-2-oxoethyl)(butyl)amino]carbonyl}oxy)methyl cyclohexanecarboxylate] | 0.25 to 4 µg/mL (≈ 0.325 to 5.2 µM) | 0.25 to 4 µg/mL (≈ 0.325 to 5.2 µM) | 0.25 to 4 µg/mL (≈ 0.325 to 5.2 µM) | 0.25 to 4 µg/mL (≈ 0.325 to 5.2 µM) | 12.9 mg/kg | 0.71 mg/kg | 0.5 to 1 µg/mL (≈ 0.649 to 1.3 µM) | 0.5 to 1 µg/mL (≈ 0.649 to 1.3 µM) | 4 to 16 µg/mL (≈ 5.2 to 20.8 µM) | 4 to 16 µg/mL (≈ 5.2 to 20.8 µM) | – | – | –
9 | CN(C)c1cc(NC(=O)CN(C(=O)OCOC(=O)c2ccc(C(=O)c3ccccc3)cc2)C(C)(C)C)c(O)c2c1C[C@H]1C[C@H]3[C@H](N(C)C)C(O)=C(C(N)=O)C(=O)[C@@]3(O)C(O)=C1C2=O [Example 107, ({[(2-{[(5aR,6aS,7S,10aS)-9-(aminocarbonyl)-4,7-bis(dimethylamino)-1,8,10a,11-tetrahydroxy-10,12-dioxo-5,5a,6,6a,7,10,10a,12-octahydrotetracen-2-yl]amino}-2-oxoethyl)(tert-butyl)amino]carbonyl}oxy)methyl 4-benzoylbenzoate] | – | – | 2 to 8 µg/mL (≈ 2.3 to 9.22 µM) | 0.5 to 1 µg/mL (≈ 0.576 to 1.15 µM) | – | – | > 64 µg/mL | – | – | 0.5 to 1 µg/mL (≈ 0.576 to 1.15 µM) | – | – | –
10 | CCCN(CC(=O)Nc1cc(N(C)C)c2c(c1O)C(=O)C1=C(O)[C@]3(O)C(=O)C(C(N)=O)=C(O)[C@@H](N(C)C)C3CC1C2)C(=O)OCc1oc(=O)oc1-c1ccc(OC)cc1 (stereo partly drawn) [Example 111, [5-(4-methoxyphenyl)-2-oxo-1,3-dioxol-4-yl]methyl 2-{[(7S,10aS)-9-(aminocarbonyl)-4,7-bis(dimethylamino)-1,8,10a,11-tetrahydroxy-10,12-dioxo-5,5a,6,6a,7,10,10a, 12-octahydrotetracen-2-yl]amino}-2-oxoethyl(propyl)carbamate] | – | – | 0.5 to 8 µg/mL (≈ 0.61 to 9.76 µM) | 1 to 16 µg/mL (≈ 1.22 to 19.5 µM) | – | – | 0.25 to 1 µg/mL (≈ 0.305 to 1.22 µM) | – | – | 1 to 4 µg/mL (≈ 1.22 to 4.88 µM) | – | – | –
